Key:
[1] = system: IAV-infected RPE and A549 cells; format: cell-based, human
in vitro = conditions: human
IAV = assay: microbe, parasite or virus in culture; format: cell-based, Human influenza A/Udorn/307/1972 (H3N2); conditions: for EC50: Influenza A virus, RPE
[2] = set-up: method as in earlier work; conditions: cited from earlier work
IAV-infected RPE cells [3] = format: cell-based, human
MERS-CoV = format: cell-based; conditions: Vero cells, 24 hpi, moi 0.1
[4] = system: RPE or A549 cells treated with bacterial lipopolysaccharides (LPS); assay: Death of cells treated with bacterial LPS; format: cell-based, human; conditions: LPS 10 µg/ml
[5] = system: vRNA-transfected RPE cells; format: cell-based, human
mock-infected RPE cells = conditions: human
IAV-infected RPE cells [6] = format: cell-based, human; remark: listed apart in the source

O=C(O)[C@H]1C2CCC(CC2)[C@@H]1Nc1nc(-c2c[nH]c3ncc(F)cc23)ncc1F [JNJ-872]
rescue from ABT-263-mediated premature death [1]: rescued

COC1=CC(c2cc3ccccc3[nH]2)=N/C1=C\c1[nH]c(C)cc1C [Obatoclax, obatoclax]
rescue from ABT-263-mediated premature death [1]: rescued

CC1(C)CCC(CN2CCN(c3ccc(C(=O)NS(=O)(=O)c4ccc(NCC5CCOCC5)c([N+](=O)[O-])c4)c(Oc4cnc5[nH]ccc5c4)c3)CC2)=C(c2ccc(Cl)cc2)C1 [ABT-199]
CC50 (in vitro): 4640 nM | EC50 (IAV): 3710 nM

CN(C)CC#Cc1ccc(OCCCc2sc(N3CCc4cccc(C(=O)Nc5nc6ccccc6s5)c4C3)nc2C(=O)O)c(F)c1 [A-1155463]
CC50 (in vitro): 60 nM | effect on viral replication (IAV): limited viral replication | EC50 (IAV): < 10 nM | side effect in animals [2]: reversible thrombocytopenia

Cc1c(-c2ccc(N3CCc4cccc(C(=O)Nc5nc6ccccc6s5)c4C3)nc2C(=O)O)cnn1CC12CC3CC(CC(C3)C1)C2 [A-1331852]
CC50 (in vitro): 50 nM | effect on viral replication (IAV): limited viral replication | EC50 (IAV): < 10 nM

Nc1ccn([C@@H]2O[C@H](CO)[C@@H](O)C2(F)F)c(=O)n1 [gemcitabine]
rescue from ABT-263-mediated premature death [1]: rescued

CN(C)CC[C@H](CSc1ccccc1)Nc1ccc(S(=O)(=O)NC(=O)c2ccc(N3CCN(Cc4ccccc4-c4ccc(Cl)cc4)CC3)cc2)cc1[N+](=O)[O-] [ABT-737]
CC50 (in vitro): 350 nM | effect on viral replication (IAV): limited viral replication | EC50 (IAV): 280 nM

CC1(C)CCC(c2ccc(Cl)cc2)=C(CN2CCN(c3ccc(C(=O)NS(=O)(=O)c4ccc(N[C@H](CCN5CCOCC5)CSc5ccccc5)c(S(=O)(=O)C(F)(F)F)c4)cc3)CC2)C1 [ABT-263]
ΔAUC CTxG (IAV-infected RPE cells [3]): 2.5 | effect on MERS-CoV replication (MERS-CoV): blocks MERS-CoV replication | death of LPS-treated cells [4]: did not accelerate the death | CC50 (in vitro): 800 nM | death of vRNA-transfected cells [5]: kills vRNA-transfected (160 ng) but not mock-transfected RPE cells | time without toxicity in mock-infected cells (mock-infected RPE cells): at least 36 h | PFU/ml (IAV): 0.01x10^6 PFU/ml | Virus titer FC (log10) (IAV): 2.0±0.2 log10 | effect on viral replication (IAV): limited viral replication | EC50 (IAV): 80 nM | time post infection at which premature death of infected cells was observed (IAV-infected RPE cells [6]): ≤ 12 h | ΔAUC CTG (IAV-infected RPE cells [6]): 9.9

C[C@H]1C/C=C/Cc2cccc(O)c2C(=O)O[C@@H](C/C=C/NC(=O)C#Cc2ccccc2)C[C@H]1O [SaliPhe, Saliphenylhalamide]
rescue from ABT-263-mediated premature death [1]: rescued
